Assay results taken from the supplement of paper PMC7394473.

How the values were obtained:
Conditions in all cases: 72 h
[1] = test system: U2OS; assay: drug GRADE (percent of response due to cell death) (% (0-100)); higher = more death-driven response
Protocol: (§1)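 U2OS cells treated with full dose titrations of drug; live and dead cells counted by STACK microscopy (mKate2 nuclei, SYTOX Green) at 72 h, biological triplicates. GR and FV dose responses were fitted with 4-parameter logistic models (GR lower bound -1). GRADE (0-100) is the rescaled angle of a linear fit of FV versus GR at doses with GR >= 0, giving the percentage of the response due to cell death.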

[2] = test system: U2OS; assay: fractional viability (live cells / total cells); higher = less cell death
Protocol: (§2)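 U2OS::Nuc-mKate2 cells seeded in 96-well plates and treated with eight- to ten-point half-log or log dilutions of drug in the presence of 50 nM SYTOX Green. Live (mKate2+) and dead (SYTOX+) cells were counted by IncuCyte STACK live-cell microscopy at 72 h; biological triplicates. GR is the normalised growth-rate inhibition value (Hafner 2016; 1 = untreated growth, <0 = population shrinking). FV is live/(live+dead) cells, not normalised.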

[3] = test system: U2OS; assay: FV IC50 (concentration giving fractional viability 0.5); higher = less potent killing
Protocol: as §1

[4] = test system: U2OS; assay: GR50 (concentration giving GR = 0.5)
Protocol: as §1

[5] = test system: U2OS; assay: normalized growth rate inhibition value (GR) relative to untreated cells (GR value (dimensionless, 1 = untreated growth)); higher = less growth inhibition
Protocol: as §2

[6] = test system: U2OS; assay: GRmin (fitted minimal GR value at highest effect) (GR value (dimensionless)); higher = less efficacious
Protocol: as §1

| Structure (SMILES) | drug GRADE [1] | fractional viability ([2]; 10 µM) | FV IC50 [3] [µM] | GR50 [4] [µM] | normalized growth rate inhibition value ([5]; 10 µM) | fractional viability ([2]; 1 µM) | GRmin [6] | normalized growth rate inhibition value ([5]; 1 µM) | fractional viability ([2]; 0.01 µM) | fractional viability ([2]; 0.0316 µM) | fractional viability ([2]; 0.1 µM) | fractional viability ([2]; 0.316 µM) | fractional viability ([2]; 3.16 µM) | fractional viability ([2]; 31.6 µM) | normalized growth rate inhibition value ([5]; 0.01 µM) | normalized growth rate inhibition value ([5]; 0.0316 µM) | normalized growth rate inhibition value ([5]; 0.1 µM) | normalized growth rate inhibition value ([5]; 0.316 µM) | normalized growth rate inhibition value ([5]; 3.16 µM) | normalized growth rate inhibition value ([5]; 31.6 µM) | further results |
| --- | --- | --- | --- | --- | --- | --- | --- | --- | --- | --- | --- | --- | --- | --- | --- | --- | --- | --- | --- | --- | --- |
| Cc1cc(Nc2ncc(Cl)c(Nc3ccccc3S(=O)(=O)C(C)C)n2)c(OC(C)C)cc1C1CCNCC1 [Ceritinib] | 7.14 | 0 | 5.27 | 3.32 | -1 | – | – | – | – | – | – | – | – | – | – | – | – | – | – | – | fractional viability ([2]; 0.00100578 µM): 0.991; fractional viability ([2]; 0.00317827 µM): 0.989; fractional viability ([2]; 0.0100433 µM): 0.992; fractional viability ([2]; 0.0317369 µM): 0.988; fractional viability ([2]; 0.100289 µM): 0.989; fractional viability ([2]; 0.316912 µM): 0.984; fractional viability ([2]; 1.00144 µM): 0.98; fractional viability ([2]; 3.16456 µM): 0.943; normalized growth rate inhibition value ([5]; 0.00100578 µM): 1.05; normalized growth rate inhibition value ([5]; 0.00317827 µM): 1.06; normalized growth rate inhibition value ([5]; 0.0100433 µM): 1.15; normalized growth rate inhibition value ([5]; 0.0317369 µM): 1.13; normalized growth rate inhibition value ([5]; 0.100289 µM): 1.02; normalized growth rate inhibition value ([5]; 0.316912 µM): 0.964; normalized growth rate inhibition value ([5]; 1.00144 µM): 0.904; normalized growth rate inhibition value ([5]; 3.16456 µM): 0.588 |
| CCc1cnn2c(NCc3ccc[n+]([O-])c3)cc(N3CCCC[C@H]3CCO)nc12 [Dinaciclib] | 3.29 | – | 0.00807 | 0.00437 | – | 0.406 | -0.376 | -0.373 | – | – | – | – | – | – | – | – | – | – | – | – | fractional viability ([2]; 0.000100578 µM): 0.986; fractional viability ([2]; 0.000317827 µM): 0.983; fractional viability ([2]; 0.00100433 µM): 0.984; fractional viability ([2]; 0.00317369 µM): 0.972; fractional viability ([2]; 0.0100289 µM): 0.41; fractional viability ([2]; 0.0316912 µM): 0.32; fractional viability ([2]; 0.100144 µM): 0.339; fractional viability ([2]; 0.316456 µM): 0.35; normalized growth rate inhibition value ([5]; 0.000100578 µM): 0.892; normalized growth rate inhibition value ([5]; 0.000317827 µM): 0.802; normalized growth rate inhibition value ([5]; 0.00100433 µM): 0.876; normalized growth rate inhibition value ([5]; 0.00317369 µM): 0.756; normalized growth rate inhibition value ([5]; 0.0100289 µM): -0.288; normalized growth rate inhibition value ([5]; 0.0316912 µM): -0.406; normalized growth rate inhibition value ([5]; 0.100144 µM): -0.368; normalized growth rate inhibition value ([5]; 0.316456 µM): -0.358 |
| CC(=O)O[C@@]12CO[C@@H]1C[C@H](O)[C@@]1(C)C(=O)[C@H](O)C3=C(C)[C@@H](OC(=O)[C@H](O)[C@@H](NC(=O)OC(C)(C)C)c4ccccc4)C[C@@](O)([C@@H](OC(=O)c4ccccc4)[C@H]21)C3(C)C [Docetaxel] | 69.6 | 0.255 | 0.00477 | 0.000853 | -0.164 | – | -0.193 | – | – | – | – | – | – | – | – | – | – | – | – | – | fractional viability ([2]; 0.00100578 µM): 0.707; fractional viability ([2]; 0.00317827 µM): 0.588; fractional viability ([2]; 0.0100433 µM): 0.41; fractional viability ([2]; 0.0317369 µM): 0.413; fractional viability ([2]; 0.100289 µM): 0.323; fractional viability ([2]; 0.316912 µM): 0.351; fractional viability ([2]; 1.00144 µM): 0.252; fractional viability ([2]; 3.16456 µM): 0.238; normalized growth rate inhibition value ([5]; 0.00100578 µM): 0.339; normalized growth rate inhibition value ([5]; 0.00317827 µM): 0.223; normalized growth rate inhibition value ([5]; 0.0100433 µM): 0.0565; normalized growth rate inhibition value ([5]; 0.0317369 µM): -0.0266; normalized growth rate inhibition value ([5]; 0.100289 µM): -0.14; normalized growth rate inhibition value ([5]; 0.316912 µM): -0.174; normalized growth rate inhibition value ([5]; 1.00144 µM): -0.245; normalized growth rate inhibition value ([5]; 3.16456 µM): -0.251 |
| COc1cccc2c1C(=O)c1c(O)c3c(c(O)c1C2=O)C[C@@](O)(C(=O)CO)C[C@@H]3O[C@H]1C[C@H](N)[C@H](O)[C@H](C)O1 [Doxorubicin] | 3.78 | 0 | 2.59 | 0.0332 | -1 | – | -0.576 | – | – | – | – | – | – | – | – | – | – | – | – | – | fractional viability ([2]; 0.00100578 µM): 0.987; fractional viability ([2]; 0.00317827 µM): 0.99; fractional viability ([2]; 0.0100433 µM): 0.989; fractional viability ([2]; 0.0317369 µM): 0.971; fractional viability ([2]; 0.100289 µM): 0.967; fractional viability ([2]; 0.316912 µM): 0.978; fractional viability ([2]; 1.00144 µM): 0.851; fractional viability ([2]; 3.16456 µM): 0.113; normalized growth rate inhibition value ([5]; 0.00100578 µM): 0.879; normalized growth rate inhibition value ([5]; 0.00317827 µM): 1.06; normalized growth rate inhibition value ([5]; 0.0100433 µM): 0.832; normalized growth rate inhibition value ([5]; 0.0317369 µM): 0.368; normalized growth rate inhibition value ([5]; 0.100289 µM): 0.0816; normalized growth rate inhibition value ([5]; 0.316912 µM): 0.0197; normalized growth rate inhibition value ([5]; 1.00144 µM): -0.0749; normalized growth rate inhibition value ([5]; 3.16456 µM): -0.501 |
| Nc1ccccc1NC(=O)c1ccc(CNC(=O)OCc2cccnc2)cc1 [Entinostat] | 42.5 | 0.201 | 5.8 | 2.84 | -0.304 | 0.933 | -0.906 | 0.741 | 0.979 | 0.97 | 0.973 | 0.964 | 0.814 | 0.0216 | 0.972 | 0.969 | 0.929 | 0.883 | 0.504 | -0.726 | – |
| CC(C)Oc1ccc(-c2ccccc2)cc1-n1c(CN2CCN(C(=O)COc3ccc(Cl)cc3)CC2)nc2ccccc2c1=O [Erastin 2] | 24.1 | 0.0609 | 0.659 | 0.231 | -0.627 | 0.233 | -0.774 | -0.133 | 0.97 | 0.973 | 0.952 | 0.886 | 0.0768 | 0.0186 | 0.949 | 0.863 | 0.703 | 0.419 | -0.515 | -0.776 | – |
| COC(=O)Nc1nc2cc(C(=O)c3ccc(F)cc3)ccc2[nH]1 [Flubendazole] | 61.2 | 0.516 | 10.7 | 0.566 | -0.01 | 0.766 | -0.0291 | 0.286 | 0.981 | 0.978 | 0.971 | 0.95 | 0.595 | 0.468 | 0.993 | 1 | 0.892 | 0.706 | 0.11 | -0.0371 | – |
| COc1cc2c(Oc3ccc(NC(=O)C4(C(=O)Nc5ccc(F)cc5)CC4)cc3F)ccnc2cc1OCCCN1CCOCC1 [Foretinib] | 39.7 | 0 | 0.864 | 0.138 | -0.93 | 0.553 | -0.837 | -0.199 | 0.966 | 0.963 | 0.941 | 0.689 | 0.0154 | 0.0267 | 0.909 | 0.791 | 0.766 | -0.079 | -0.831 | -0.682 | – |
